Results on 12 compounds are retold here after patent publication US20250049809A1, “INHIBITORS OF MUTANT IDH1 AND IDH2” (Board of Regents, The University of Texas System, priority 2023, published 2025).

SMILES strings stand for the structures. Where two headings read alike, the source gives them in different places.

One series has as its target mIDH2R140Q (Homo sapiens (Human), UniProt P48735, R140Q). As to the kind of experiment: mIDH2 R140Q enzymatic activity assay (NADPH fluorescence). As to conditions: enzyme assay, 1 hour preincubation; read-out: IDH2R140Q IC50. Format: biochemical. As for the experimental part:
(§1) The enzymatic activity of mIDH2R140Q was assessed by measuring the fluorescence of the NADPH. The assay was performed in 384 well, white ProxiPlates (PerkinElmer, 6008280) in assay buffer containing 50 mM Hepes (Life Technologies, 15630080), 50 mM KCl (Teknova, P0327), 10 mM MgCl2 (Sigma-Aldrich, M1028), 1 mM DTT (Sigma-Aldrich, 43815), 0.02% BSA (Sigma-Aldrich, A3059) at pH 7.5. The final reaction volume was 10 μL. Stock solutions of the test compounds were prepared in 100% DMSO (Sigma, D2650) and serially diluted 1:3 using 100% DMSO. 50 nL of compound were then transferred to the assay plate using the Beckman Coulter ECHO 650 Acoustic Liquid Handler for a final DMSO concentration of 0.5%. 5 μL of a mIDH2R140Q and NADPH (Santa Cruz, SC202725C) mixture were added to the assay plate for a final concentration of 3 nM and 10 μM, respectively. 5 μL of NADPH alone were added to negative control wells followed by a 1 hour preincubation at room temperature. 5 μL of alphaketoglutarate (Sigma-Aldrich, K1128) were added to the assay plate for a final concentration of 300 μM. Fluorescence of NADPH (excitation: 350 nm, emission 450 nm) was immediately measured kinetically for approximately 150 minutes using the BioTek Synergy Neo plate reader.

A further series addresses mIDH1R132H/S280F (Homo sapiens (Human), UniProt O75874, R132H/S280F). As to the kind of experiment: mIDH1 R132H/S280F enzymatic activity assay (NADPH fluorescence). Format: biochemical. To be noted: enzyme assay, 1 hour preincubation; read-out: IDH1R132H/S280F IC50. As for the experimental part: as §1, with “of mIDH1R132H/S280F” for “of mIDH2R140Q”, “a mIDH1R132H/S280F” for “a mIDH2R140Q”, “of 2” for “of 3”, “[…],” for “10 μM,”, “of 120” for “of 300”, “approximately 90” for “approximately 150”

The target of a further series is TF1 IDH2R140Q (Homo sapiens (Human), UniProt P48735, R140Q). The experiment in a line: TF1 IDH2 R140Q 2-HG cellular assay. The format is cell-based. As to conditions: extracellular 2HG, 24 hr treatment, IDH2 mutant-TF1 isogenic cell line. As for the experimental part:
The IDH2 mutant-TF1 isogenic cell line (ATCC CRL-20031G) used to test cellular inhibition is an erythroblast cell line that was isolated from the marrow of a patient with erythroleukemia with the IDH2R140Q mutation. These cells are maintained in RPMI-1640 (ATCC 30-2001) culture media with 10% FBS, 10 U/mL Penicillin-Streptomycin, and 2 ng/mL GM-CSF. Thirty thousand cells are plated in polystyrene tissue culture treated 384 well cell culture plates (PerkinElmer 6007680) (30,000 cells/well) approximately 2 hours before compound treatment. Cells are then treated with different concentrations of test compounds (5 μM to 0.3 pM) for 24 hr. Extracellular 2HG levels are measured from cell culture media. For analyte extraction, 30 μL of culture media is transferred to 120 μL 100% acetonitrile in a deep 384 well plate and mixed well, followed by 5 min centrifugation at 3700 rpm at room temperature. 100 μL of supernatant is transferred to a flat bottom 384 well plate. Samples are run on the Agilent RapidFire-Mass Spectrometry instrument to detect 2HG levels. The samples from each well were aspirated for 600 ms and loaded onto a HILIC solid-phase extraction cartridge (Agilent) followed by a wash step for 3000 ms with 90% acetonitrile containing 5 mM ammonium acetate. Analytes were then eluted off the cartridge into the Agilent 6460 Triple Quad mass spectrometer with a 4500 ms elution step using 30% acetonitrile containing 5 mM ammonium acetate. The HILIC cartridge was then re-equilibrated by 90% acetonitrile containing 5 mM ammonium acetate for 500 ms. The 2HG was detected by an Agilent 6460 Triple Quad mass spectrometer in negative ion mode. Multiple reaction monitoring was used to quantify 2HG using the precursor ion and product ion at m/z 147.03 and 128.9, respectively. The percent activity of each sample is calculated by using DMSO and control compound treated references, and IC50 values are obtained using the GeneData Screener data analysis program.

The target in another series is U87 IDH1R132H (Homo sapiens (Human), UniProt O75874, R132H). As to the kind of experiment: U87 IDH1 R132H 2-HG cellular assay. Format: cell-based. As to conditions: extracellular 2HG, 24 h treatment, IDH1 mutant-U-87 isogenic cell line. As for the experimental part: The IDH1 mutant-U-87 isogenic cell line (ATCC HTB-14IG) used to test cellular inhibition is a glioma IDH1R132H mutant isogenic line derived from the parental U-87MG cell line. These cells are maintained in EMEM (ATCC 30-2003) culture media with 10% FBS and 10 U/mL Penicillin-Streptomycin. Twelve thousand cells are plated in polystyrene 384 well cell culture plates (Greiner Bio-One 781091) (12,000 cells/well) approximately 18 hours before compound treatment. Immediately before treatment, the cells are washed twice with PBS, followed by culture media replenishing. Cells are then treated with different concentrations of test compounds (5 μM to 0.3 pM) for 24 h. Extracellular 2HG levels are measured from cell culture media. For analyte extraction, 30 μL of culture media is transferred to 120 uL 100% acetonitrile in a deep 384 well plate and mixed well, followed by 5 min centrifugation at 3700 rpm at room temperature. 100 μL of supernatant is transferred to a flat bottom 384 well plate. Samples are run on the Agilent RapidFire-Mass Spectrometry instrument to detect 2HG levels. The samples from each well were aspirated for 600 ms and loaded onto a HILIC solid-phase extraction cartridge (Agilent) followed by a wash step for 3000 ms with 90% acetonitrile containing 5 mM ammonium acetate. Analytes were then eluted off the cartridge into the Agilent 6460 Triple Quad mass spectrometer with a 4500 ms elution step using 30% acetonitrile containing 5 mM ammonium acetate. The HILIC cartridge was then re-equilibrated by 90% acetonitrile containing 5 mM ammonium acetate for 500 ms. The 2HG was detected by an Agilent 6460 Triple Quad mass spectrometer in negative ion mode. Multiple reaction monitoring was used to quantify 2HG using the precursor ion and product ion at m/z 147.03 and 128.9, respectively. The percent activity of each sample is calculated by using DMSO and control compound treated references, and IC50 values are obtained using the GeneData Screener data analysis program.
Chain of U87 IDH1R132H (O75874 whole entry R132H): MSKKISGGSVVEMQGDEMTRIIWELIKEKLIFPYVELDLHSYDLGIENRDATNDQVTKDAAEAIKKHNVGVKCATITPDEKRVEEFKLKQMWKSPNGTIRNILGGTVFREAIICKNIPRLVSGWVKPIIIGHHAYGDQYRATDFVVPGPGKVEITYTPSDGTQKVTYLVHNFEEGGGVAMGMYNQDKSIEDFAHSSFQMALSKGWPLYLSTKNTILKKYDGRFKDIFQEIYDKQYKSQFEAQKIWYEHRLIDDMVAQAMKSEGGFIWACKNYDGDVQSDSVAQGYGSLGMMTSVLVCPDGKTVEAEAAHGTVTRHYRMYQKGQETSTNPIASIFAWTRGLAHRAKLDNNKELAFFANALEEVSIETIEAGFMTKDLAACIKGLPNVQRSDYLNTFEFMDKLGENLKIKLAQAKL

The conditions of series [1]: rcm bond.
For series [2] the following is noted: from C=CCCCC(c1ccc([C@H](C)Nc2ncc3c(n2)N(CC=C)C(=O)OC3)cc1)N1CCN(C(=O)OC(C)(C)C)CC1; rcm bond; 17-membered ring; Hoveyda-Grubbs II (2 x 0.1 eq); DCE; 8.67 mM; 60.0 °C; 15.0 h.

Chain of mIDH2R140Q (P48735 40-452 R140Q): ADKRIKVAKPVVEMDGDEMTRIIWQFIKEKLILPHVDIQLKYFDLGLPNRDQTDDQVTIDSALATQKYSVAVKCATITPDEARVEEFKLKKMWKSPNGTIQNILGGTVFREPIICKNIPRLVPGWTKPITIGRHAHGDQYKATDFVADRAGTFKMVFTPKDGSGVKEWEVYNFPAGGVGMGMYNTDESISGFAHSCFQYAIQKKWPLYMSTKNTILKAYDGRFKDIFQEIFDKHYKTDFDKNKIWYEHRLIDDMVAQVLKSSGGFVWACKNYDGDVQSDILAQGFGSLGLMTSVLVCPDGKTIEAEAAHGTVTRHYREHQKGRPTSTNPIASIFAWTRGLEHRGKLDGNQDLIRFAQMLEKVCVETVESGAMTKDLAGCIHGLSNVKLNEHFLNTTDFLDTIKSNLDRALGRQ
Chain of TF1 IDH2R140Q (P48735 40-452 R140Q): as above
Chain of mIDH1R132H/S280F (O75874 whole entry R132H/S280F): as the sequence (O75874 whole entry R132H) above, with S280F counted along it

On to `C=CC(=O)N1CCN(C2CCCCCC[C@H](C)N3C(=O)OCc4cnc(nc43)N[C@@H](C)c3ccc2cc3)CC1` (stereo partly drawn) [Example 9, (3S,12S)-5-(4-acryloylpiperazin-1-yl)-3,12-dimethyl-1^1,1^4-dihydro-1^2H-2-aza-1(7,1)-pyrimido[4,5-d][1,3]oxazina-4(1,4)-benzenacyclododecaphan-1^2-one], for which the IC50 at mIDH2R140Q was determined as 1490 nM; on mIDH1R132H/S280F, 94 nM; against TF1 IDH2R140Q, 504 nM; against U87 IDH1R132H, 0.14 nM.
Regarding `C=CC(=O)N1CCN(C2CCC/C=C/CN3C(=O)OCc4cnc(nc43)N[C@@H](C)c3ccc2cc3)CC1` (stereo partly drawn) [Example 6, (3S,Z)-5-(4-acryloylpiperazin-1-yl)-3-methyl-1^1,1^4-dihydro-1^2H-2-aza-1(7,1)-pyrimido[4,5-d][1,3]oxazina-4(1,4)-benzenacycloundecaphan-9-en-1^2-one], the IC50 was 1720 nM on TF1 IDH2R140Q and 0.26 nM against U87 IDH1R132H.
As to `C=CC(=O)N1CCN(C2CCCCCCCCN3C(=O)OCc4cnc(nc43)N[C@@H](C)c3ccc2cc3)CC1` (stereo partly drawn) [Example 1, (3S)-5-(4-acryloylpiperazin-1-yl)-3-methyl-1^1,1^4-dihydro-1^2H-2-aza-1(7,1)-pyrimido[4,5-d][1,3]oxazina-4(1,4)-benzenacyclotridecaphan-1^2-one], the IC50 at mIDH2R140Q stood at 1320 nM; at mIDH1R132H/S280F, 103 nM; against TF1 IDH2R140Q, 269 nM; at U87 IDH1R132H it was 0.32 nM.
For the compound `C=CC(=O)N1CCN(C2COCCCC[C@H](C)N3C(=O)OCc4cnc(nc43)N[C@@H](C)c3ccc2cc3)CC1` (stereo partly drawn) [Example 10, (3S,12S)-5-(4-acryloylpiperazin-1-yl)-3,12-dimethyl-1^1,1^4-dihydro-1^2H-7-oxa-2-aza-1(7,1)-pyrimido[4,5-d][1,3]oxazina-4(1,4)-benzenacyclododecaphan-1^2-one], the IC50 at mIDH2R140Q was found to be 4990 nM; at mIDH1R132H/S280F, 83 nM; against TF1 IDH2R140Q it was 1220 nM; against U87 IDH1R132H, 0.31 nM.
The compound `C[C@@H]1Nc2ncc3c(n2)N(CCCCC=CCCC(N2CCN(C(=O)OC(C)(C)C)CC2)c2ccc1cc2)C(=O)OC3` (some centres unmarked) returned a ring closure, isolated yield in series [1] (from C=CCCCCN1C(=O)OCc2cnc(N[C@@H](C)c3ccc(C(CCC=C)N4CCN(C(=O)OC(C)(C)C)CC4)cc3)nc21, 19-membered ring, Hoveyda-Grubbs II (0.21 eq), DCE, 16.6 mM, 60.0 °C, 9.0 h) of 49.2%.
`C[C@@H]1Nc2ncc3c(n2)N(CC=CCCCC(N2CCN(C(=O)OC(C)(C)C)CC2)c2ccc1cc2)C(=O)OC3` (some centres unmarked) returned a ring closure, yield after HPLC in series [2] of 21%.
As for `C=CC(=O)N1CCN(C2CCCCCCN3C(=O)OCc4cnc(nc43)N[C@@H](C)c3ccc2cc3)CC1` (single isomer, unassigned) [Example 8], the IC50 came out at 4730 nM on mIDH2R140Q, 922 nM at mIDH1R132H/S280F, 351 nM against TF1 IDH2R140Q and 0.19 nM against U87 IDH1R132H.
The compound `C[C@@H]1Nc2ncc3c(n2)N(CC=CCCCC(=O)c2ccc1cc2)C(=O)OC3` returned a ring closure, isolated yield in series [1] (from C=CCCCC(=O)c1ccc([C@H](C)Nc2ncc3c(n2)N(CC=C)C(=O)OC3)cc1, 17-membered ring, Grubbs II (2 portions), DCM, 2.04 mM, 40.0 °C, 84.0 h) of 52%.
With `C=CC(=O)N1CCN(C2CCCCCCN3C(=O)OCc4cnc(nc43)N[C@@H](C)c3ccc2cc3)CC1` (single isomer, unassigned) [Example 7], the IC50 is 1730 nM at mIDH2R140Q, 295 nM at mIDH1R132H/S280F, 123 nM against TF1 IDH2R140Q and 0.24 nM on U87 IDH1R132H.
Consider `C=CC(=O)N1CCN(C2CCCC/C=C/CCN3C(=O)OCc4cnc(nc43)N[C@@H](C)c3ccc2cc3)CC1` (stereo partly drawn) [Example 5, (3S,E)-5-(4-acryloylpiperazin-1-yl)-3-methyl-1^1,1^4-dihydro-1^2H-2-aza-1(7,1)-pyrimido[4,5-d][1,3]oxazina-4(1,4)-benzenacyclotridecaphan-10-en-12-one], for which the IC50 came to 215 nM against TF1 IDH2R140Q and 0.1 nM against U87 IDH1R132H.
Turning to `C=CC(=O)N1CCN(C2CC/C=C\CCCCN3C(=O)OCc4cnc(nc43)N[C@@H](C)c3ccc2cc3)CC1` (stereo partly drawn) [Example 2, (3S,Z)-5-(4-acryloylpiperazin-1-yl)-3-methyl-1^1,1^4-dihydro-1^2H-2-aza-1(7,1)-pyrimido[4,5-d][1,3]oxazina-4(1,4)-benzenacyclotridecaphan-8-en-1^2-one], the IC50 was determined as 1840 nM on mIDH2R140Q, 284 nM at mIDH1R132H/S280F, 342 nM against TF1 IDH2R140Q and 0.31 nM against U87 IDH1R132H.
In series [1] (from C=CCCCCC(=O)c1ccc([C@H](C)Nc2ncc3c(n2)N(CC=C)C(=O)OC3)cc1, 18-membered ring, Grubbs II (0.1 eq), DCM, 2.6 mM, 45.0 °C, 48.0 h), `C[C@@H]1Nc2ncc3c(n2)N(CC=CCCCCC(=O)c2ccc1cc2)C(=O)OC3` showed a ring closure, isolated yield of 36.5%.
